Experimental data reported in PMC3187750, “Functional Analysis of the Cytoskeleton Protein MreB from Chlamydophila pneumoniae” (PLoS ONE, 2011).

Legend:
[1] = target: T1, MreB from C. pneumoniae (chlamydial MreB) (Chlamydia pneumoniae, UniProt A0ABN3YSA6); assay: light scattering polymerization assay; format: biochemical; set-up: pET-21b, EcoRI/XhoI, C-terminal His6 tag kept; expressed in E. coli BL21(DE3); Ni-NTA purified; settings: standard polymerization conditions (5 µM MreB, 5 mM MgCl2, pH 7, 20 °C)
T1 sequence (A0ABN3YSA6 2-366): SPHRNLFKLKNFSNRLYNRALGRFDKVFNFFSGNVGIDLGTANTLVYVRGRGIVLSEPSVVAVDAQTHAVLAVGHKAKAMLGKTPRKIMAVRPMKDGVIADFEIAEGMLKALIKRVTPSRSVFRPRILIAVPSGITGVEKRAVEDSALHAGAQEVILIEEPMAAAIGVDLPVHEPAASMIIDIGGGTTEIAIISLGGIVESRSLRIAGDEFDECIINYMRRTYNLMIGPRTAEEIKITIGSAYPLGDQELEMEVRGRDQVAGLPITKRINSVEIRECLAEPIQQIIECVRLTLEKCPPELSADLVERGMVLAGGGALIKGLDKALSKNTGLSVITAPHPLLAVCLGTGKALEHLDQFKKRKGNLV

[2] = target: T1, MreB from C. pneumoniae (chlamydial MreB); settings: 5 µM MreB, 200 µM ATP; polymerizing (5 mM MgCl2, pH 7) and monomeric (no MgCl2, pH 8) conditions

Row | SMILES | light scattering polymerization assay [1] | phosphate release, molybdate-malachite green assay [2]
1 | Nc1nc2c(ncn2[C@@H]2O[C@H](COP(=O)(O)OP(=O)(O)OP(=O)(O)O)[C@@H](O)[C@H]2O)c(=O)[nH]1 [GTP] | In the presence of GTP, the kinetics and extent of wild-type MreB polymerization was impaired | –
2 | Nc1ncnc2c1ncn2[C@@H]1O[C@H](COP(=O)(O)OP(=O)(O)OP(=O)(O)O)[C@@H](O)[C@H]1O [ATP] | – | The C345A mutant and wild-type MreB proteins hydrolyzed ATP without marked differences
